Where a name gives a salt, the structure may show the parent alone. Each block holds one compound with its values, some of them ahead of it.
Experiments:
human PMAT = biological target: T1, human PMAT (Homo sapiens, UniProt Q7RTT9); assay: Oxygen consumption rate (OCR) assay, HEK293 cells transfected with PMAT; format: cell-based; conditions: HEK293 cells with human PMAT; 10 μM
T1 construct: expressed in transfected cells; host or cells: HEK293
T1 sequence (Q7RTT9 1-530): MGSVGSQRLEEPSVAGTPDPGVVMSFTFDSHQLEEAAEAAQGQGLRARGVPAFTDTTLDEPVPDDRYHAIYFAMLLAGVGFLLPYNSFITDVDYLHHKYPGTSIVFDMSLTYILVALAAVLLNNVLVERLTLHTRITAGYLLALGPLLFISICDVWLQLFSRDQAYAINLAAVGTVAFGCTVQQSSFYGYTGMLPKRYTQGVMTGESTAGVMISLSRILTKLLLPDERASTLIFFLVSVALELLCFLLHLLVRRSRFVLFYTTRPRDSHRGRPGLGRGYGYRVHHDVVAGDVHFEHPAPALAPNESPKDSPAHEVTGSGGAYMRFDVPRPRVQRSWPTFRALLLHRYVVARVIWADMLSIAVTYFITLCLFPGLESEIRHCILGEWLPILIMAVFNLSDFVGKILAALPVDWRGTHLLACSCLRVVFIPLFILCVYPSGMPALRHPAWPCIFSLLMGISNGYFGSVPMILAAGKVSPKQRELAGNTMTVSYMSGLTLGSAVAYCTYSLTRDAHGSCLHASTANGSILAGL
Description: (§1) Diabetologia 2011, 54 (12): 3101-3110, each incorporated by reference with regard to such testing. The compounds of the present invention are similarly tested in an oxygen consumption rate (OCR) assay to evaluate the functional activity of test compounds in cells.
(§2) In brief, the assay uses HEK293 cells stably transfected with the human OCT1, OCT2, OCT3, PMAT, or MATE1 transporters to determine a compound's relative transporter selectivity and its effect on the rate of oxygen consumption relative to control (Neo) cells. The MitoXpress Xtra oxygen-sensitive fluorophore is used to monitor oxygen consumption rates in the presence and absence of compound treatments. The analogs were tested at eight (8) different concentrations in triplicate to determine a relative IC50 value.
(§3) A summary description of the protocol is as follows:
(§4) HEK293 cells transformed with human organic cation transporters were plated in collagen coated, 96-well black-walled microclear plates (Greiner-Bio 1, #655956) at 60,000 cells per well in growth medium (DMEM (LG), 10% FBS, 400 μg/ml G418). Cells were incubated overnight to allow attachment. The outer columns (1 and 12) are not seeded with cells, as controls. The next day, plating medium was removed and replaced with 150 μL of assay medium (DMEM/F12 (PRF), 5% FBS, antibiotics) containing compound dilutions. A 3-fold serial dilution was prepared in the assay medium and transferred to the empty wells. The outer columns and column 11 received 150 μL of assay medium only. 10 μL of MitoXpress Xtra reagent was added to each test well, and 100 μL of pre-warmed mineral oil was overlayed in each well to create a seal. Dual read time-resolved fluorescence (BMG FluoStar Galaxy reader) was measured over 2 hours with measurements taken every 2 minutes. Excitation is 340 nm, Emission is 650 nm. For lifetime analysis, two measurements per well were taken: 1) delay of 30 μs, with a window of 30 μs; and 2) delay of 70 μs with a window of 30 μs. Background TRF values from A1-D1 were subtracted from all readings. A ratiometric analysis was performed to determine changes in the Lifetime fluorescence signal:Lifetime (μs) [T]=(D2−D1)/ln(W1/W2), where D is delay; W is fluorescence window value at each time point. Lifetime slopes were calculated using each Lifetime measurement over time. IC50 values were determined by plotting lifetime slope values vs. compound concentration.

control (Neo) cells = assay: Oxygen consumption rate (OCR) assay, control (Neo) HEK293 cells; format: cell-based; conditions: Homo sapiens; control (Neo) HEK293 cells; MitoXpress Xtra, 2 hours; read-out: Oxygen Consumption Rate (OCR) IC50, Neo
Description: as §1, §2, §3, §4

human MATE1 = biological target: T2, human MATE1 (Homo sapiens, UniProt Q96FL8); assay: Oxygen consumption rate (OCR) assay, HEK293 cells transfected with MATE1; conditions: for inhibition at 1000 µM: HEK293, read-out: Oxygen Consumption Rate (OCR), MATE 1, % Inhibition at 1000 μM test concentration
T2 sequence (Q96FL8 1-570): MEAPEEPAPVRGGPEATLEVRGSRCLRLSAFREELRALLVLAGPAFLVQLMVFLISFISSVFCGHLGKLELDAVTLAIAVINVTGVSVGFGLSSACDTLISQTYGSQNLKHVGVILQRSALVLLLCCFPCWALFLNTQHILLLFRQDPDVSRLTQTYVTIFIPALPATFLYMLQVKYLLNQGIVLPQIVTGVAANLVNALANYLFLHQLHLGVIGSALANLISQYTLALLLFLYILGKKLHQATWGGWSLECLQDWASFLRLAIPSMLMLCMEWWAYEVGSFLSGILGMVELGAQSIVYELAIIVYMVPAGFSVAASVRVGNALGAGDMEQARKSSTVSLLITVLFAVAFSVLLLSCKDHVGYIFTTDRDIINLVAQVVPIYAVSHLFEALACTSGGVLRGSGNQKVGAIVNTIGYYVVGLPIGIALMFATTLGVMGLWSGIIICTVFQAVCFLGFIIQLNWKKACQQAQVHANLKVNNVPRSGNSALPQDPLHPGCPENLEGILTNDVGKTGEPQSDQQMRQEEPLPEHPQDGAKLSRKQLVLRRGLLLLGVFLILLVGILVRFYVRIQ
Description: The compounds of the present invention are similarly tested in an oxygen consumption rate (OCR) assay to evaluate the functional activity of test compounds in cells.
as §2, §3
as §4, with “Cells” for “HEK293 cells transformed with human organic cation transporters were plated in collagen coated, 96-well black-walled microclear plates (Greiner-Bio 1, #655956) at 60,000 cells per well in growth medium (DMEM (LG), 10% FBS, 400 μg/ml G418). Cells”

Compound: Cn1cc(CCNC(=N)NC(=N)N)c2cc(F)ccc21 [Ex 4, 1-[2-(5-fluoro-1-methyl-1H-indol-3-yl)ethyl]imidodicarbonimide diamide]
- inhibition at 10 µM (human PMAT): 41%
- IC50 (control (Neo) cells): 678 µM
- IC50 (human MATE1): 1570 µM

Compound: CC(Cc1c[nH]c2ccc(F)cc12)NC(=N)NC(=N)N (stereo not shown) [Ex 5, 1-[1-(5-fluoro-1H-indol-3-yl)propan-2-yl]imidodicarbonimide diamide]
- inhibition at 10 µM (human PMAT): 12%
- IC50 (control (Neo) cells): 1880 µM
- inhibition at 1000 µM (human MATE1): 65%

Compound: CC(Cc1cn(C)c2ccc(F)cc12)NC(=N)NC(=N)N (stereo not shown) [Ex 6, 1-[1-(5-fluoro-1-methyl-1H-indol-3-yl)propan-2-yl]imidodicarbonimide Diamide]
- inhibition at 10 µM (human PMAT): 8%
- IC50 (control (Neo) cells): > 10000 µM
- inhibition at 1000 µM (human MATE1): 18%

Compound: N=C(N)NC(=N)NCCCc1c[nH]c2ccccc12 [Ex 7, hydrochloride]
- inhibition at 10 µM (human PMAT): 7%
- IC50 (control (Neo) cells): > 10000 µM
- inhibition at 1000 µM (human MATE1): 36%

Compound: CC(C)(CNC(=N)NC(=N)N)c1c[nH]c2ccccc12 [Ex 8]
- inhibition at 10 µM (human PMAT): 20%
- IC50 (control (Neo) cells): > 1000 µM
- inhibition at 1000 µM (human MATE1): 31%

Compound: N=C(N)NC(=N)NCCc1c[nH]c2ccc(Cl)cc12 [Ex 9, 1-[2-(5-chloro-1H-indol-3-yl)ethyl]imidodicarbonimide diamide, trifluoroacetic acid salt]
- inhibition at 10 µM (human PMAT): 53%
- IC50 (control (Neo) cells): 70 µM
- IC50 (human MATE1): 171 µM

Compound: Cc1ccc2[nH]cc(CCNC(=N)NC(=N)N)c2c1 [Ex 10, 1-[2-(5-methyl-1H-indol-3-yl)ethyl]imidodicarbonimide diamide trifluoroacetic acid salt]
- inhibition at 10 µM (human PMAT): 43%
- IC50 (control (Neo) cells): 439 µM
- IC50 (human MATE1): 2190 µM

Compound: Cc1c(CCNC(=N)NC(=N)N)c2ccccc2n1C [Ex 16, 1-[2-(1,2-dimethyl-1H-indol-3-yl)ethyl]imidodicarbonimide diamide]
- inhibition at 10 µM (human PMAT): 36%
- IC50 (control (Neo) cells): 1210 µM
- inhibition at 1000 µM (human MATE1): 10%

Compound: N=C(N)NC(=N)NCCc1c[nH]c2ccccc12 [Ex 17, 1-[2-(1H-indol-3-yl)ethyl]imidodicarbonimide diamide hydrochloride]
- inhibition at 10 µM (human PMAT): 54%
- IC50 (control (Neo) cells): > 5000 µM
- IC50 (human MATE1): 4840 µM

Compound: N=C(N)NC(=N)NCCc1c[nH]c2ccc([N+](=O)[O-])cc12 [Ex 18, 1-[2-(5-nitro-1H-indol-3-yl)ethyl]imidodicarbonimide diamide, trifluoroacetic acid salt]
- inhibition at 10 µM (human PMAT): 27%
- IC50 (control (Neo) cells): 1410 µM
- inhibition at 1000 µM (human MATE1): -26%

- inhibition at 10 µM (human PMAT): 27%
- IC50 (human MATE1): 1540 µM
Compound: N=C(N)NC(=N)NCCc1c[nH]c2cccnc12 [Ex 21, 1-(2-(1H-pyrrolo[3,2-b]pyridin-3-yl)ethyl)imidodicarbonimide diamide acetate]
- IC50 (control (Neo) cells): > 3000 µM

- inhibition at 10 µM (human PMAT): -7%
- IC50 (human MATE1): 2980 µM
Compound: N=C(N)NC(=N)NCCc1c[nH]c2ccncc12 [Ex 22, 1-(2-(1H-pyrrolo[3,2-c]pyridin-3-yl)ethyl)imidodicarbonimide diamide hydrochloride]
- IC50 (control (Neo) cells): 3240 µM

Compound: CN(C)C(=N)NC(=N)NCCc1c[nH]c2cc(F)ccc12 [Ex 23, 3-(2-(6-fluoro-1H-indol-3-yl)ethyl)-1,1-dimethyl imidodicarbonimide diamide hydrochloride]
- inhibition at 10 µM (human PMAT): 4%
- IC50 (control (Neo) cells): > 3000 µM
- IC50 (human MATE1): > 10000 µM

Compound: Cc1[nH]c2cc(F)ccc2c1CCNC(=N)NC(=N)N [Ex 31, 1-[2-(6-fluoro-2-methyl-1H-indol-3-yl)ethyl]imidodicarbonimide diamide, trifluoroacetic acid salt]
- inhibition at 10 µM (human PMAT): 35%
- IC50 (control (Neo) cells): 4870 µM
- IC50 (human MATE1): 13400 µM

Compound: N=C(N)NC(=N)NCCc1c[nH]c2cc(F)c(Cl)cc12 [Ex 58, 1-[2-(5-chloro-6-fluoro-1H-indol-3-yl)ethyl]imidodicarbonimide diamide, trifluoroacetic acid salt]
- IC50 (control (Neo) cells): 191 µM
- IC50 (human MATE1): 35 µM

Compound: Cc1cccc2[nH]cc(CCNC(=N)NC(=N)N)c12 [Ex 60, 1-[2-(4-methyl-1H-indol-3-yl)ethyl]imidodicarbonimide diamide, trifluoroacetic acid salt]
- IC50 (control (Neo) cells): 1640 µM
- IC50 (human MATE1): 636 µM

Compound: N=C(N)NC(=N)NCCc1c[nH]c2cc(F)cc(F)c12 [Ex 61, 1-[2-(4,6-difluoro-1H-indol-3-yl)ethyl]imidodicarbonimide diamide, trifluoroacetic acid salt]
- IC50 (control (Neo) cells): 333 µM
- IC50 (human MATE1): 62 µM

Compound: CC(CNC(=N)NC(=N)N)c1c[nH]c2cc(F)ccc12 (stereo not shown) [Ex 62, 1-[2-(6-fluoro-1H-indol-3-yl)propyl]imidodicarbonimide diamide, trifluoroacetic acid salt]
- IC50 (control (Neo) cells): 3430 µM
- IC50 (human MATE1): 3430 µM

Compound: CC(C)(CNC(=N)NC(=N)N)c1c[nH]c2cc(F)ccc12 [Ex 63, 1-[2-(6-fluoro-1H-indol-3-yl)-2-methylpropyl]imidodicarbonimide diamide, trifluoroacetic acid salt]
- IC50 (control (Neo) cells): 1750 µM
- IC50 (human MATE1): 3790 µM

Compound: N=C(N)NC(=N)NCCc1c[nH]c2c(F)cc(Cl)cc12 [Ex 64, 1-[2-(5-chloro-7-fluoro-1H-indol-3-yl)ethyl]imidodicarbonimide diamide, trifluoroacetic acid salt]
- IC50 (control (Neo) cells): 282 µM
- IC50 (human MATE1): 370 µM

Compound: CN(CCc1c[nH]c2cc(F)ccc12)C(=N)NC(=N)N [Ex 65, 1-methyl-1-[2-(6-fluoro-1H-indol-3-yl)ethyl]imidodicarbonimide diamide, trifluoroacetic acid salt]
- IC50 (control (Neo) cells): 8410 µM
- IC50 (human MATE1): 354 µM

- IC50 (human MATE1): 4950 µM
Compound: CN(C)C(=N)NC(=N)NCCc1c[nH]c2nc(F)ccc12 [Ex. 54, 3-(2-(6-fluoro-1H-pyrrolo[2,3-b]pyridin-3-yl)ethyl)-1,1-dimethyl imidodicarbonimide diamide trifluoroacetic acid salt]
- IC50 (control (Neo) cells): 4600 µM

From patent publication US12371404B2, “Fused bicyclic alkylene linked imidodicarbonimidic diamides, methods for synthesis, and uses in therapy” (NovaTarg, Inc., priority 2016, dated 2025)
